Data reported in ChEMBL document CHEMBL1201861, “Genomics of Drug Sensitity in Cancer screening data, Wellcome Trust Sanger Institute”.

What was measured:
Experiment in all cases: cells
Settings in all cases: Homo sapiens
[1] = tested on: GCIY; assay type: functional, cell-based;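 also: growth inhibition of the human GCIY cell line, read out by a cell viability assay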
Description: SANGER: Inhibition of human GCIY cell growth in a cell viability assay.

[2] = tested on: NB6; assay type: functional, cell-based;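 also: growth inhibition of NB6 cells, read out by a cell viability assay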
Description: SANGER: Inhibition of human NB6 cell growth in a cell viability assay.

[3] = tested on: COLO-684; assay type: functional, cell-based
Description: SANGER: Inhibition of human COLO-684 cell growth in a cell viability assay.

[4] = tested on: LB771-HNC; assay type: functional, cell-based;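 also: growth inhibition of LB771-HNC human cells, read out with a cell viability assay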
Description: SANGER: Inhibition of human LB771-HNC cell growth in a cell viability assay.

[5] = tested on: NCI-H1155; assay type: functional, cell-based;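 also: cell growth inhibition measured by a viability assay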
Description: SANGER: Inhibition of human NCI-H1155 cell growth in a cell viability assay.

[6] = tested on: U-87 MG; assay type: functional, cell-based, U-87MG ATCC;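 also: growth inhibition of the cells measured with a viability assay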
Description: SANGER: Inhibition of human U-87-MG cell growth in a cell viability assay.

[7] = tested on: NH-12; assay type: functional, cell-based;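 also: growth inhibition of NH-12 cells, read out with a cell viability assay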
Description: SANGER: Inhibition of human NH-12 cell growth in a cell viability assay.

[8] = tested on: Ramos-2G6-4C10; assay type: functional, cell-based;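 also: growth inhibition of the cell line, measured by a cell viability read-out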
Description: SANGER: Inhibition of human Ramos-2G6-4C10 cell growth in a cell viability assay.

[9] = tested on: NCI-H1092; assay type: functional, cell-based;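 also: cell growth inhibition measured with a cell viability assay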
Description: SANGER: Inhibition of human NCI-H1092 cell growth in a cell viability assay.

[10] = tested on: SCH; assay type: functional, cell-based;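 also: growth inhibition of human SCH cells, read out in a cell viability assay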
Description: SANGER: Inhibition of human SCH cell growth in a cell viability assay.

[11] = tested on: MHH-NB-11; assay type: functional, cell-based;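 also: growth inhibition of human MHH-NB-11 cells, read out by a cell viability assay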
Description: SANGER: Inhibition of human MHH-NB-11 cell growth in a cell viability assay.

[12] = tested on: IST-MEL1; assay type: functional, cell-based;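 also: growth inhibition of the cell line, read out with a cell viability assay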
Description: SANGER: Inhibition of human IST-MEL1 cell growth in a cell viability assay.

[13] = tested on: NKM-1; assay type: functional, cell-based;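 also: growth inhibition of NKM-1 cells, read out with a cell viability assay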
Description: SANGER: Inhibition of human NKM-1 cell growth in a cell viability assay.

[14] = tested on: NCI-H2126; assay type: functional, cell-based;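 also: growth inhibition of the cancer cell line, determined with a cell viability readout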
Description: SANGER: Inhibition of human NCI-H2126 cell growth in a cell viability assay.

[15] = tested on: SW872; assay type: functional, cell-based;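 also: growth inhibition of SW872 cells, read out by a viability assay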
Description: SANGER: Inhibition of human SW872 cell growth in a cell viability assay.

[16] = tested on: DJM-1; assay type: functional, cell-based;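 also: growth inhibition of human DJM-1 cells, read out by a cell viability assay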
Description: SANGER: Inhibition of human DJM-1 cell growth in a cell viability assay.

[17] = tested on: BE-13; assay type: functional, cell-based;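 also: growth inhibition of human BE-13 cells, measured with a cell viability assay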
Description: SANGER: Inhibition of human BE-13 cell growth in a cell viability assay.

[18] = tested on: SK-MEL-2; assay type: functional, cell-based;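 also: growth inhibition of human SK-MEL-2 cells measured with a cell viability assay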
Description: SANGER: Inhibition of human SK-MEL-2 cell growth in a cell viability assay.

[19] = tested on: SCC-15; assay type: functional, cell-based;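 also: growth inhibition of SCC-15 cells, read out with a cell viability assay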
Description: SANGER: Inhibition of human SCC-15 cell growth in a cell viability assay.

[20] = tested on: EKVX; assay type: functional, cell-based;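 also: growth inhibition of human EKVX cells, read out with a cell viability assay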
Description: SANGER: Inhibition of human EKVX cell growth in a cell viability assay.

[21] = tested on: SW982; assay type: functional, cell-based;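 also: growth inhibition of SW982 cells, read out with a cell viability assay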
Description: SANGER: Inhibition of human SW982 cell growth in a cell viability assay.

[22] = tested on: MMAC-SF; assay type: functional, cell-based;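 also: growth inhibition of human MMAC-SF cells, read out with a cell viability assay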
Description: SANGER: Inhibition of human MMAC-SF cell growth in a cell viability assay.

[23] = tested on: D-263MG; assay type: functional, cell-based
Description: SANGER: Inhibition of human D-263MG cell growth in a cell viability assay.

[24] = tested on: NCI-H526; assay type: functional, cell-based;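 also: growth inhibition of the human NCI-H526 cell line, measured by a cell viability assay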
Description: SANGER: Inhibition of human NCI-H526 cell growth in a cell viability assay.

[25] = tested on: 8-MG-BA; assay type: functional, cell-based;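 also: growth inhibition of 8-MG-BA cells, read out with a cell viability assay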
Description: SANGER: Inhibition of human 8-MG-BA cell growth in a cell viability assay.

[26] = tested on: HT; assay type: functional, cell-based
Description: SANGER: Inhibition of human HT cell growth in a cell viability assay.

[27] = tested on: NOS-1; assay type: functional, cell-based;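 also: growth inhibition of the human NOS-1 cell line, read out with a cell viability assay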
Description: SANGER: Inhibition of human NOS-1 cell growth in a cell viability assay.

[28] = tested on: LB831-BLC; assay type: functional, cell-based;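 also: growth inhibition of LB831-BLC cells, read out with a cell viability assay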
Description: SANGER: Inhibition of human LB831-BLC cell growth in a cell viability assay.

[29] = tested on: NCI-H23; assay type: functional, cell-based;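 also: cell viability assay measuring growth inhibition of NCI-H23 cells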
Description: SANGER: Inhibition of human NCI-H23 cell growth in a cell viability assay.

[30] = tested on: HAL-01; assay type: functional, cell-based;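 also: growth inhibition of human HAL-01 cells, read out with a cell viability assay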
Description: SANGER: Inhibition of human HAL-01 cell growth in a cell viability assay.

[31] = tested on: BB65-RCC; assay type: functional, cell-based;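 also: growth inhibition of the cell line, measured with a cell viability assay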
Description: SANGER: Inhibition of human BB65-RCC cell growth in a cell viability assay.

[32] = tested on: GOTO; assay type: functional, cell-based;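 also: growth inhibition of GOTO cells, read out by a cell viability assay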
Description: SANGER: Inhibition of human GOTO cell growth in a cell viability assay.

[33] = tested on: P30-OHK; assay type: functional, cell-based;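 also: growth inhibition of the P30-OHK cell line, read out with a cell viability assay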
Description: SANGER: Inhibition of human P30-OHK cell growth in a cell viability assay.

[34] = tested on: NCI-H510A; assay type: functional, cell-based;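 also: growth inhibition of NCI-H510A cells, read out with a cell viability assay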
Description: SANGER: Inhibition of human NCI-H510A cell growth in a cell viability assay.

[35] = tested on: MOLT-16; assay type: functional, cell-based;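 also: growth inhibition of human MOLT-16 cells, read out with a cell viability assay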
Description: SANGER: Inhibition of human MOLT-16 cell growth in a cell viability assay.

[36] = tested on: RPMI-8226; assay type: functional, cell-based
Description: SANGER: Inhibition of human RPMI-8226 cell growth in a cell viability assay.

[37] = tested on: KS-1; assay type: functional, cell-based;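 also: growth inhibition of KS-1 cells, read out with a cell viability assay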
Description: SANGER: Inhibition of human KS-1 cell growth in a cell viability assay.

[38] = tested on: LS-411N; assay type: functional, cell-based
[39] = tested on: ACN; assay type: functional, cell-based;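 also: growth inhibition of the human ACN cell line, read out via cell viability testing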
Description: SANGER: Inhibition of human ACN cell growth in a cell viability assay.

[40] = tested on: K562; assay type: functional, cell-based
Description: SANGER: Inhibition of human K-562 cell growth in a cell viability assay.

[41] = tested on: SK-NEP-1; assay type: functional, cell-based;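 also: growth inhibition of human SK-NEP-1 cells, read out by a cell viability assay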
Description: SANGER: Inhibition of human SK-NEP-1 cell growth in a cell viability assay.

[42] = tested on: SW684; assay type: functional, cell-based;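 also: growth inhibition of human SW684 cells, measured by a cell viability assay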
Description: SANGER: Inhibition of human SW684 cell growth in a cell viability assay.

[43] = tested on: NCI-H1838; assay type: functional, cell-based;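 also: growth inhibition of NCI-H1838 cells, determined with a cell viability readout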
Description: SANGER: Inhibition of human NCI-H1838 cell growth in a cell viability assay.

[44] = tested on: NB69; assay type: functional, cell-based;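 also: growth inhibition of NB69 cells, determined by a cell viability assay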
Description: SANGER: Inhibition of human NB69 cell growth in a cell viability assay.

[45] = tested on: SH-4; assay type: functional, cell-based;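 also: growth inhibition of SH-4 cells, read out with a cell viability assay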
Description: SANGER: Inhibition of human SH-4 cell growth in a cell viability assay.

[46] = tested on: KM-H2; assay type: functional, cell-based;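 also: growth inhibition of KM-H2 cells, read out by a cell viability assay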
Description: SANGER: Inhibition of human KM-H2 cell growth in a cell viability assay.

[47] = tested on: RCC10RGB; assay type: functional, cell-based;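 also: growth inhibition of human RCC10RGB cells, read out by a cell viability assay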
Description: SANGER: Inhibition of human RCC10RGB cell growth in a cell viability assay.

[48] = tested on: MS-1; assay type: functional, cell-based;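 also: growth inhibition of MS-1 cells, read out by cell viability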
Description: SANGER: Inhibition of human MS-1 cell growth in a cell viability assay.

[49] = tested on: KP-N-YS; assay type: functional, cell-based;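 also: cell viability assay measuring inhibition of cell line growth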
Description: SANGER: Inhibition of human KP-N-YS cell growth in a cell viability assay.

[50] = tested on: TE-5; assay type: functional, cell-based;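 also: inhibition of cell growth, read out by a cell viability assay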
Description: SANGER: Inhibition of human TE-5 cell growth in a cell viability assay.

[51] = tested on: MZ2-MEL; assay type: functional, cell-based;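 also: growth inhibition of MZ2-MEL cells read out with a cell viability assay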
Description: SANGER: Inhibition of human MZ2-MEL cell growth in a cell viability assay.

[52] = tested on: NCI-H209; assay type: functional, cell-based;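 also: growth inhibition of human NCI-H209 cells, measured by a cell viability assay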
Description: SANGER: Inhibition of human NCI-H209 cell growth in a cell viability assay.

[53] = tested on: KG-1; assay type: functional, cell-based;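 also: growth inhibition of KG-1 cells, read out by a cell viability assay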
Description: SANGER: Inhibition of human KG-1 cell growth in a cell viability assay.

[54] = tested on: LXF-289 cell line; assay type: functional, cell-based
Description: SANGER: Inhibition of human LXF-289 cell growth in a cell viability assay.

[55] = tested on: IST-SL1; assay type: functional, cell-based;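 also: growth inhibition of human IST-SL1 cells, read out with a cell viability assay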
Description: SANGER: Inhibition of human IST-SL1 cell growth in a cell viability assay.

[56] = tested on: HCE-4; assay type: functional, cell-based;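 also: cell viability assay measuring inhibition of growth in the human HCE-4 cell line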
Description: SANGER: Inhibition of human HCE-4 cell growth in a cell viability assay.

[57] = tested on: KLE; assay type: functional, cell-based;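 also: growth inhibition of human KLE cells, read out with a cell viability assay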
Description: SANGER: Inhibition of human KLE cell growth in a cell viability assay.

[58] = tested on: EW-18; assay type: functional, cell-based
Description: SANGER: Inhibition of human EW-18 cell growth in a cell viability assay.

[59] = tested on: TE-1; assay type: functional, cell-based
Description: SANGER: Inhibition of human TE-1 cell growth in a cell viability assay.

[60] = tested on: PSN1; assay type: functional, cell-based
Description: SANGER: Inhibition of human PSN1 cell growth in a cell viability assay.

[61] = tested on: 697; assay type: functional, cell-based
Description: SANGER: Inhibition of human 697 cell growth in a cell viability assay.

[62] = tested on: JVM-3; assay type: functional, cell-based
Description: SANGER: Inhibition of human JVM-3 cell growth in a cell viability assay.

[63] = tested on: COLO-829; assay type: functional, cell-based
Description: SANGER: Inhibition of human COLO-829 cell growth in a cell viability assay.

[64] = tested on: KU812 cell line; assay type: functional, cell-based
Description: SANGER: Inhibition of human KU812 cell growth in a cell viability assay.

[65] = tested on: ES7; assay type: functional, cell-based
Description: SANGER: Inhibition of human ES7 cell growth in a cell viability assay.

[66] = tested on: BV-173; assay type: functional, cell-based
Description: SANGER: Inhibition of human BV-173 cell growth in a cell viability assay.

## CC(C)=CC[C@@H](O)C1=CC(=O)c2c(O)ccc(O)c2C1=O [SHIKONIN]
[1]
  IC50: 36 nM
[2]
  IC50: 454 nM
[3]
  IC50: 401 nM
[4]
  IC50: > 16000 nM
[5]
  IC50: > 16000 nM
[6]
  IC50: 1280 nM
[7]
  IC50: 850 nM
[8]
  IC50: 315 nM
[9]
  IC50: 1390 nM
[10]
  IC50: > 16000 nM
[11]
  IC50: 486 nM
[12]
  IC50: 15000 nM
[13]
  IC50: 101 nM
[14]
  IC50: 15600 nM
[15]
  IC50: 367 nM
[16]
  IC50: 6390 nM
[17]
  IC50: 1200 nM
[18]
  IC50: 6330 nM
[19]
  IC50: 650 nM
[20]
  IC50: 3670 nM
[21]
  IC50: 60.2 nM
[22]
  IC50: 752 nM
[23]
  IC50: 2230 nM
[24]
  IC50: 2640 nM
[25]
  IC50: 85.6 nM
[26]
  IC50: 1090 nM
[27]
  IC50: > 16000 nM
[28]
  IC50: 1920 nM
[29]
  IC50: > 16000 nM
[30]
  IC50: 196 nM
[31]
  IC50: 695 nM
[32]
  IC50: 4590 nM
[33]
  IC50: 220 nM
[34]
  IC50: > 16000 nM
[35]
  IC50: 2760 nM
[36]
  IC50: 472 nM
[37]
  IC50: 41.5 nM
[38]
  IC50: 3190 nM
[39]
  IC50: 917 nM
[40]
  IC50: > 16000 nM
[41]
  IC50: 1080 nM
[42]
  IC50: 777 nM
[43]
  IC50: > 16000 nM
[44]
  IC50: 213 nM
[45]
  IC50: 371 nM
[46]
  IC50: 1040 nM
[47]
  IC50: 1560 nM
[48]
  IC50: 1770 nM
[49]
  IC50: 352 nM
[50]
  IC50: 1000 nM
[51]
  IC50: 385 nM
[52]
  IC50: 12300 nM
[53]
  IC50: 1600 nM
[54]
  IC50: 3270 nM
[55]
  IC50: > 16000 nM
[56]
  IC50: 389 nM
[57]
  IC50: 685 nM
[58]
  IC50: 529 nM
[59]
  IC50: 15800 nM
[60]
  IC50: > 16000 nM
[61]
  IC50: 876 nM
[62]
  IC50: > 16000 nM
[63]
  IC50: 658 nM
[64]
  IC50: < 62.5 nM
[65]
  IC50: 548 nM
[66]
  IC50: 436 nM
